Laboratory results: patent publication US12551532B2, “Long-acting amylin receptor agonists and uses thereof” (Eli Lilly and Company, priority 2021, dated 2026)
Starred links: 1 amine or outer side, 2 acyl side, 3 side chain; linkers in the order of their positions; H or OH if unused. Positions of bridges follow the written chain, without caps; N, C: chain ends. Non-standard residues stand in square brackets, D forms with d. Residues, ends and D or L forms follow the SMILES beside them. Groups on a side chain read outwards from the residue. *: point of attachment. C20 diacid = O=C(O)CCCCCCCCCCCCCCCCCCC(=O)*; γGlu = O=C(O)[C@H](CCC(=O)[*:2])N[*:1]; Orn = NCCC[C@H](N)C(=O)O; AEEA = NCCOCCOCC(=O)O; Aib = CC(C)(N)C(=O)O; CH2 = C([*:1])[*:2]

How the values were obtained:
hAMY1R = molecular target: T1, hAMY1R (Homo sapiens, UniProt O60894+P30988); experiment: hAMY1R cAMP functional activity (HTRF); type: cell-based; conditions: ±SE; UMUC3 cells overexpressing hAMY1R; relative EC50
T1 construct: expressed in transfected cells
T1 sequence (O60894 27-148 partner, one chain of several): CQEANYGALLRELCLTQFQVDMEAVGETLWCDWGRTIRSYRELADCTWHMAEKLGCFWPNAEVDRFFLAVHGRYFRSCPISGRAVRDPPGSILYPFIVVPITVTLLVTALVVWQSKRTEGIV
Description: (§1) The AMY1 and CT receptors are GPCRs that are functionally coupled to Gas proteins. […] In vitro activity of peptides is measured by the amount of cAMP formed in human AMY1R and CTR overexpressed cells.
Human AMY1R stable cell lines are generated by further transfecting human RAMP1-pCMVpuroPB (T14213) into UMUC3 hCTR clone cells. After selection, the mRNA levels human RAMP1 from different clones are measured to confirm the expression of human AMY1R.
(§2) hAMY1R cells are cultured in MEM 1× (Corning) supplemented with 10% FBS, 1% antibiotic/antimycotic solution, 1 mM sodium pyruvate, 1×MEM NEAA, 1× GlutaMAX-I, 200 μg/mL hygromycin B, and 0.4 μg/mL puromycin. The hCTR cells are cultured in the same medium lacking the puromycin. Cultured cells are grown to 70% confluency and then incubated overnight with fresh medium.
(§3) Peptides diluted in DMSO are added (200 nL/well) in a 1:3 dilution series using ECHO acoustic liquid handler (Beckman). Cultured cells are detached with TrypLE Express (Gibco), resuspended in assay buffer, and 10 μL containing 1200 cells/well (hCTR) or 1500 cells/well (hAMY1R) are dispensed into each well. The plates are incubated at room temperature for 1 hour.
(§4) The amount of intracellular cAMP is quantitated using HTRF technology (Homogeneous Time Resolved Fluorescence; Cisbio) as per vendor instructions. Briefly, 10 μL cAMP-d2 conjugate and 10 μL anti-cAMP-cryptate conjugate in lysis buffer are incubated with the treated cells at room temperature for 60 min. […] The raw data are converted to cAMP amount (pmol/well) using a cAMP standard curve generated for each experiment.

human CT receptors = molecular target: T2, human CT receptors (Homo sapiens, UniProt P30988); experiment: hCTR cAMP functional activity (HTRF); type: cell-based; conditions: ±SE; UMUC3 cells overexpressing hCTR; relative EC50
T2 construct: expressed in transfected cells
T2 sequence (P30988 25-474): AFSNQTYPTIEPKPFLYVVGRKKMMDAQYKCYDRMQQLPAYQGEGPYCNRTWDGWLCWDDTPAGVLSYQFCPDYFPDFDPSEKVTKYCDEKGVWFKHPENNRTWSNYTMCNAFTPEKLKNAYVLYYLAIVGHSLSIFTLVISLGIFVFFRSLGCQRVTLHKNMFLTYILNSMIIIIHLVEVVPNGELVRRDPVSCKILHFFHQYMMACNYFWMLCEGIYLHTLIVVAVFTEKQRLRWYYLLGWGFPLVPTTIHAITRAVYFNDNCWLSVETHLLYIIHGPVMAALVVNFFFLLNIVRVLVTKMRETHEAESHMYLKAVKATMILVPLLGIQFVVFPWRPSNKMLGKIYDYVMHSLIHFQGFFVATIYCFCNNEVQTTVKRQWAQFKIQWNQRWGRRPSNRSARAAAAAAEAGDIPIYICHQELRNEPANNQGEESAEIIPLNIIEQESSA
Description: as §1
Human CT receptors are stably expressed in human urinary bladder cells (UM-UC-3, or UMUC3) under control of a pcDNA expression vector. […] After 20 days under selection, the mRNA levels from different clones are measured to confirm the expression of hCTR. To determine the function of over-expressed hCTR cells, the intracellular cAMP levels in response to salmon calcitonin are measured and compared to the expression of hCTR mRNA in each clone.
as §2, §3, §4

[1] = DIO rats: Compound II alone and in combination with incretin compounds; type: in vivo, Long Evans rats; conditions: for Cumulative Food Intake: 14-day treatment period, mean±SEM
Description: This study is conducted to investigate the effect of Compound II for diabetes and/or obesity conditions in DIO rats when administered in combination with other incretin compounds, including a GLP-1 agonist (Compound XVII), oxyntomodulin analog (Compound XVIII), and a triagonist of glucagon, GLP-1, and GIP (Compound XIX). Diet-induced obese (DIO) male Long Evans (Envigo) rats, maintained on a calorie rich diet since arrival at Lilly (TD95217; Teklad, Madison, WI), are used in the following studies. Animals are individually housed in a temperature-controlled (24° C.) facility with 12-hour light/dark cycle (lights on 2200) and free access to food (TD95217) and water.
The rats are randomized according to their body weight, so that each experimental group of animals would have similar body weight. The body weights range from 529 to 823 grams.
Each group contains five rats. […] SC injections are made on Days 1, 4, 7, 10 and 13. Body weight and food intake are measured daily throughout the study. Absolute changes in body weight are calculated by subtracting the body weight of the same animal prior to the first injection of molecule.
At the end of the study, blood is collected to measure blood glucose and plasma insulin. Blood glucose is measured by AccuChek glucometers (Roche, Indianapolis, IN). Insulin is measured by ELISA (MSD, Rockville, MD).
All data are presented as mean±SEM of 5 animals per group. Statistical analysis is performed using one-way ANOVA, followed by Tukey's multiple comparison test to compare treatment groups to vehicle group or each other. Significant differences are identified at p<0.05.

Row | EC50 (hAMY1R) [nM] | EC50 (human CT receptors) [nM] | Molecule | also measured
1 | 0.038 ± 0.0078 | 10.5 ± 2.2 | CC(C)C[C@H](NC(=O)[C@H](CCCCN)NC(=O)CNC(=O)[C@@H](NC(=O)[C@H](C)NC(=O)[C@@H]1CSCSC[C@H](NC(=O)CC[C@H](N)C(=O)O)C(=O)N[C@@H](CC(N)=O)C(=O)N[C@@H]([C@@H](C)O)C(=O)N[C@@H](C)C(=O)N[C@@H]([C@@H](C)O)C(=O)N1)[C@@H](C)O)C(=O)N[C@@H](C)C(=O)N[C@@H](CCC(=O)O)C(=O)N[C@@H](Cc1ccccc1)C(=O)N[C@@H](CC(C)C)C(=O)N[C@H](C(=O)N[C@@H](CCCNC(=N)N)C(=O)N[C@@H](CO)C(=O)N[C@@H](CO)C(=O)N[C@@H](CC(N)=O)C(=O)N[C@@H](CC(N)=O)C(=O)N[C@@H](Cc1ccccc1)C(=O)NCC(=O)N1CCC[C@H]1C(=O)N[C@@H](CCCCNC(=O)CC[C@H](NC(=O)CC[C@H](NC(=O)COCCOCCNC(=O)CCCCCCCCCCCCCCCCCCC(=O)O)C(=O)O)C(=O)O)C(=O)N[C@@H](CC(C)C)C(=O)N1CCC[C@H]1C(=O)N1CCC[C@H]1C(=O)N[C@H](C(=O)N[C@@H](CCC(=O)O)C(=O)N[C@H](C(=O)NCC(=O)N[C@@H](CO)C(=O)N[C@@H](CC(N)=O)C(=O)N[C@H](C(=O)N[C@@H](Cc1ccc(O)cc1)C(N)=O)[C@@H](C)O)C(C)C)[C@@H](C)O)C(C)C [Compound XI] (γGlu-CNTATCATGKLAEFLVRSSNNFGPK([γGlu-γGlu-AEEA-C20 diacid])LPPTEVGSNTY-NH2; linker 1-6 via CH2) | –
2 | 0.08 ± 0.013 | 14 ± 3.32 | CC(C)C[C@H](NC(=O)[C@H](CCCCN)NC(=O)CNC(=O)[C@@H](NC(=O)[C@H](C)NC(=O)[C@@H]1CSCSC[C@H](NC(=O)CC[C@H](N)C(=O)O)C(=O)N[C@@H](CC(N)=O)C(=O)N[C@@H]([C@@H](C)O)C(=O)N[C@@H](C)C(=O)N[C@@H]([C@@H](C)O)C(=O)N1)[C@@H](C)O)C(=O)N[C@@H](C)C(=O)N[C@@H](CCC(=O)O)C(=O)N[C@@H](Cc1ccccc1)C(=O)N[C@@H](CC(C)C)C(=O)N[C@H](C(=O)N[C@@H](CCCNC(=N)N)C(=O)N[C@@H](CO)C(=O)N[C@@H](CO)C(=O)N[C@@H](CC(N)=O)C(=O)N[C@@H](CC(N)=O)C(=O)N[C@@H](Cc1ccccc1)C(=O)NCC(=O)N1CCC[C@H]1C(=O)N[C@@H](CCCCNC(=O)CC[C@H](NC(=O)COCCOCCNC(=O)COCCOCCNC(=O)CCCCCCCCCCCCCCCCCCC(=O)O)C(=O)O)C(=O)N[C@@H](CC(C)C)C(=O)N1CCC[C@H]1C(=O)N1CCC[C@H]1C(=O)N[C@H](C(=O)N[C@@H](CCC(=O)O)C(=O)N[C@H](C(=O)NCC(=O)N[C@@H](CO)C(=O)N[C@@H](CC(N)=O)C(=O)N[C@H](C(=O)N[C@@H](Cc1ccc(O)cc1)C(N)=O)[C@@H](C)O)C(C)C)[C@@H](C)O)C(C)C [Compound X] (γGlu-CNTATCATGKLAEFLVRSSNNFGPK([γGlu-AEEA-AEEA-C20 diacid])LPPTEVGSNTY-NH2; linker 1-6 via CH2) | –

Continued, molecule first:

Row | Molecule | EC50 (hAMY1R) [nM] | EC50 (human CT receptors) [nM] | also measured
3 | CC(C)C[C@H](NC(=O)[C@H](CCCN)NC(=O)[C@H](CCC(N)=O)NC(=O)[C@@H](NC(=O)[C@H](C)NC(=O)[C@@H]1CSCSC[C@H](NC(=O)CC[C@H](N)C(=O)O)C(=O)N[C@@H](CC(N)=O)C(=O)N[C@@H]([C@@H](C)O)C(=O)N[C@@H](C)C(=O)N[C@@H]([C@@H](C)O)C(=O)N1)[C@@H](C)O)C(=O)N[C@@H](C)C(=O)N[C@@H](CCC(=O)O)C(=O)N[C@@H](Cc1ccccc1)C(=O)N[C@@H](CC(C)C)C(=O)N[C@H](C(=O)N[C@@H](CCCNC(=N)N)C(=O)N[C@@H](CO)C(=O)N[C@@H](CO)C(=O)N[C@@H](CC(N)=O)C(=O)N[C@@H](CC(N)=O)C(=O)N[C@@H](Cc1ccccc1)C(=O)NCC(=O)N1CCC[C@H]1C(=O)N[C@@H](CCCCNC(=O)COCCOCCNC(=O)COCCOCCNC(=O)CC[C@H](NC(=O)CCCCCCCCCCCCCCCCCCC(=O)O)C(=O)O)C(=O)N[C@@H](CC(C)C)C(=O)N1CCC[C@H]1C(=O)N1CCC[C@H]1C(=O)N[C@H](C(=O)N[C@@H](CCC(=O)O)C(=O)N[C@H](C(=O)NCC(=O)N[C@@H](CO)C(=O)N[C@@H](CC(N)=O)C(=O)N[C@H](C(=O)N[C@@H](Cc1ccc(O)cc1)C(N)=O)[C@@H](C)O)C(C)C)[C@@H](C)O)C(C)C [Compound XII] (γGlu-CNTATCATQ[Orn]LAEFLVRSSNNFGPK([AEEA-AEEA-γGlu-C20 diacid])LPPTEVGSNTY-NH2; linker 1-6 via CH2) | 0.113 ± 0.034 | 25.9 ± 7.62 | –
4 | H-Aib-QGTFTSDYSKYLDEKKAK((2-[2-(2-Amino-ethoxy)-ethoxy]-acetyl)2-(γGlu)-CO-(CH2)18-CO2H)EFVEWLLEGGPSSG-NH2 (H-H[Aib]QGTFTSDYSKYLDEKKAK([AEEA-AEEA-γGlu-C20 diacid])EFVEWLLEGGPSSG-NH2) [Compound XVIII, oxyntomodulin analog] | – | – | Body Weight Change ([1]; 10 nmol/kg SC Day 1, 4, 7, 10, 13, Day 1 to Day 14, mean±SEM): -50.24 ± 6.36 g; Cumulative Food Intake ([1]; 10 nmol/kg SC every three days): 165.86 ± 7.45 g
5 | Y-Aib-QGTFTSDYSI-αMeL-LDKK((2-[2-(2-Amino-ethoxy)-ethoxy]-acetyl)-(γGlu)-CO-(CH2)18-CO2H)AQ-Aib-AFIEYLLEGGPSSGAPPPS-NH2 (YXQGTFTSDYSIXLDKKAQXAFIEYLLEGGPSSGAPPPS; Aib, αMeL; lipidated Lys; C-terminal amide; SITE 2 X at position 2 is Aib; SITE 13 X at position 13 is alpha-methyl-leucine; MOD_RES 17 K at position 17 is chemically modified by conjugation of the epsilon-amino group of the lysine side chain with (2-[2-(2-amino-ethoxy)-ethoxy]-acetyl)-(gamma-glutamic acid)-CO-(CH2)18-CO2H; SITE 20 X at position 20 is Aib; MOD_RES 39 S at position 39 is amidated) [Compound XIX, triagonist of glucagon, GLP-1, and GIP] | – | – | Body Weight Change ([1]; 3 nmol/kg SC Day 1, 4, 7, 10, 13, Day 1 to Day 14, mean±SEM): -43.28 ± 2.54 g; Cumulative Food Intake ([1]; 3 nmol/kg SC every three days): 157.50 ± 10.63 g
